# Several values for one entry are separate records, joined by “and”; a condition that tells them apart may be missing. Equal values may be shown once.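 Values below derive from 48-hour exposures of cells grown in 96-well plates, with endpoints linearly interpolated between the two concentrations bracketing the appropriate inhibition level. Here, GI50 denotes the concentration required for 50% inhibition of growth.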 Activity calls are given as the source filed them. Cut-off read from the data, not from the text of the source: active = GI50 up to about 1.1 µM and inactive = higher.
# What was measured:
# Assay in all cases: inhibition of tumour cell growth, NCI panel, 48 h
# [1] = system: OVCAR-4
# [2] = system: SF-295
# [3] = system: NCI-H460
# [4] = system: UACC-257
# [5] = system: SW-620
# [6] = system: TK-10
# [7] = system: 786-0
# [8] = system: HL-60
# [9] = system: MCF7
# [10] = system: LOX IMVI
# [11] = system: SR
# [12] = system: OVCAR-8
# [13] = system: SF-268
# [14] = system: Malme-3M
# [15] = system: A549
# [16] = system: K562
# [17] = system: MOLT-4
# [18] = system: CCRF-CEM
# [19] = system: SK-MEL-5
# [20] = system: SK-MEL-28
SMILES,GI50 [1],GI50 [2],GI50 [3],GI50 [4],GI50 [5],GI50 [6],GI50 [7],GI50 [8],GI50 [9],GI50 [10],GI50 [11],GI50 [12],GI50 [13],GI50 [14],GI50 [15],GI50 [16],GI50 [17],GI50 [18],GI50 [19],GI50 [20]
OCCCN(CCc1ccc(Cl)c(Cl)c1)CCN1CCCC1,> 100 µM (inactive),34 µM (inactive),51.2 µM (inactive),19.3 µM (inactive),81.5 µM (inactive),40.6 µM (inactive),24 µM (inactive),34.4 µM (inactive),27.4 µM (inactive),35.9 µM (inactive),31.8 µM (inactive),> 100 µM (inactive),48 µM (inactive),23.9 µM (inactive),58.2 µM (inactive),19.5 µM (inactive),39.2 µM (inactive),30 µM (inactive),–,–
O=C1c2ccccc2-c2nc(-c3ccccc3)cc3c2c1nc1ccccc13,26.7 µM (inactive),12 µM (inactive),–,14.2 µM (inactive),13.2 µM (inactive),15.3 µM (inactive),25.2 µM (inactive),1.03 µM (active),4.51 µM (inactive),1.77 µM (inactive),2.11 µM (inactive),16.4 µM (inactive),19.7 µM (inactive),4.7 µM (inactive),16.9 µM (inactive),1 µM (active),6.52 µM (inactive),0.59 µM (active),2.67 µM (inactive),9.25 µM (inactive)
C=CCOCn1ccc(NC(=O)c2ccccc2)nc1=O,–,> 100 µM (inactive),> 100 µM (inactive),> 100 µM (inactive),> 100 µM (inactive),> 100 µM (inactive),> 100 µM (inactive),> 100 µM (inactive),> 100 µM (inactive),> 100 µM (inactive),> 100 µM (inactive),> 100 µM (inactive),> 100 µM (inactive),> 100 µM (inactive),> 100 µM (inactive),> 100 µM (inactive),> 100 µM (inactive),> 100 µM (inactive),> 100 µM (inactive),> 100 µM (inactive)
O=c1oc2c/c(=C\c3ccc([N+](=O)[O-])cc3)c(=O)c3cccc1c3-2,–,> 100 µM (inactive),> 100 µM (inactive),> 100 µM (inactive),> 100 µM (inactive),21.9 µM (inactive),> 100 µM (inactive),> 100 µM (inactive),> 100 µM (inactive),35.2 µM (inactive),> 100 µM (inactive),30.8 µM (inactive),39.8 µM (inactive),> 100 µM (inactive),> 100 µM (inactive),> 100 µM (inactive),> 100 µM (inactive),36.8 µM (inactive),> 100 µM (inactive),> 100 µM (inactive)
O=C(Nc1ccccc1)N(C1=NCC(CI)S1)c1ccc(F)cc1F (stereo unspecified),43.6 µM (inactive),> 100 µM (inactive),–,23.2 µM (inactive),62.1 µM (inactive),82.8 µM (inactive),46 µM (inactive),20.1 µM (inactive),41.6 µM (inactive),16 µM (inactive),12.2 µM (inactive),> 100 µM (inactive),> 100 µM (inactive),> 100 µM (inactive),> 100 µM (inactive),41.5 µM (inactive),21.6 µM (inactive),15.3 µM (inactive),46 µM (inactive),24.1 µM (inactive)
COc1cc(NC(C)=O)ccc1C(=O)N/N=C/c1ccco1,> 100 µM (inactive),> 100 µM (inactive),–,–,> 100 µM (inactive),–,> 100 µM (inactive),46.5 µM (inactive),52.2 µM (inactive),97.5 µM (inactive),26.7 µM (inactive),> 100 µM (inactive),> 100 µM (inactive),> 100 µM (inactive),> 100 µM (inactive),> 100 µM (inactive),31.3 µM (inactive),80.2 µM (inactive),44.5 µM (inactive),> 100 µM (inactive)
CC(C)(C)C1CCC2c3c([nH]c4ccccc34)C3C(=O)N(c4ccc(C#N)cc4)C(=O)C3C2C1 (stereo unspecified),–,29.2 µM (inactive),3.81 µM (inactive),20.2 µM (inactive),8.13 µM (inactive),20.3 µM (inactive),12 µM (inactive),3.42 µM (inactive),29.5 µM (inactive),13.2 µM (inactive),6.47 µM (inactive),14.5 µM (inactive),11 µM (inactive),17.3 µM (inactive),8.43 µM (inactive),6.22 µM (inactive),0.678 µM (active),0.0108 µM (active),12.9 µM (inactive),14 µM (inactive)
CC1(C(=O)O)CCC2(C)CCC3(C)C(=CC(=O)C4C5(C)CCC(O)C(C)(C)C5CCC43C)C2C1 (stereo unspecified),42.8 µM (inactive),26.5 µM (inactive),–,33.9 µM (inactive),37.5 µM (inactive),35.7 µM (inactive),42.1 µM (inactive),24.6 µM (inactive),50.2 µM (inactive),22.6 µM (inactive),24.3 µM (inactive),43.8 µM (inactive),27.4 µM (inactive),> 100 µM (inactive),40.3 µM (inactive),–,36.2 µM (inactive),30.9 µM (inactive),24.4 µM (inactive),22.1 µM (inactive)
COC(=O)C1=Cc2cc(OC)c(O)cc2[C@@H](c2ccc(O)c(OC)c2)[C@@H]1C(=O)OC,–,> 100 µM (inactive),> 100 µM (inactive),> 100 µM (inactive),> 100 µM (inactive),–,> 100 µM (inactive),> 100 µM (inactive),> 100 µM (inactive),> 100 µM (inactive),> 100 µM (inactive),> 100 µM (inactive),> 100 µM (inactive),> 100 µM (inactive),> 100 µM (inactive),57.3 µM (inactive),> 100 µM (inactive),> 100 µM (inactive),43.9 µM (inactive),> 100 µM (inactive)
CC(C)=C1C(=O)C[C@]2(C)C[C@H]3/C(=C(/C)CCC12)CC[C@@]3(C)O (stereo partly specified),> 50 µM (inactive),> 50 µM (inactive),–,> 50 µM (inactive),> 50 µM (inactive),> 50 µM (inactive),> 50 µM (inactive),11.3 µM (inactive),> 50 µM (inactive),> 50 µM (inactive),20.7 µM (inactive),> 50 µM (inactive),> 50 µM (inactive),–,> 50 µM (inactive),22.2 µM (inactive),14.9 µM (inactive),20.3 µM (inactive),40.4 µM (inactive),> 50 µM (inactive)
COc1ccc([C@]23CCN(S(=O)(=O)c4ccc(C)cc4)[C@H]2[C@H](CO)C2(CC3)OCC(C)(C)CO2)cc1OC,> 100 µM (inactive),> 100 µM (inactive),> 100 µM (inactive),> 100 µM (inactive),> 100 µM (inactive),> 100 µM (inactive),> 100 µM (inactive),> 100 µM (inactive),> 100 µM (inactive),> 100 µM (inactive),> 100 µM (inactive),> 100 µM (inactive),–,> 100 µM (inactive),> 100 µM (inactive),> 100 µM (inactive),> 100 µM (inactive),> 100 µM (inactive),> 100 µM (inactive),> 100 µM (inactive)
Cc1cn(C2CC(N(O)Cc3ccccc3)C(CO[Si](C)(C)C(C)(C)C)O2)c(=O)[nH]c1=O (stereo unspecified),23.7 µM (inactive) and 17.4 µM (inactive),17.2 µM (inactive) and 18.8 µM (inactive),17.9 µM (inactive) and 17.7 µM (inactive),16.4 µM (inactive) and 26.4 µM (inactive),19.4 µM (inactive) and 25.8 µM (inactive),–,17.4 µM (inactive) and 15.6 µM (inactive),29.8 µM (inactive) and 36.5 µM (inactive),19.6 µM (inactive) and 30.9 µM (inactive),–,31.6 µM (inactive),17.8 µM (inactive) and 25.7 µM (inactive),–,17.9 µM (inactive),–,24.4 µM (inactive) and 27 µM (inactive),40.2 µM (inactive) and 57.3 µM (inactive),30.1 µM (inactive),16.6 µM (inactive) and 18.8 µM (inactive),–
CN(C)Cc1cc(/N=N/c2ccccc2)ccc1O,–,> 100 µM (inactive),40.5 µM (inactive),25.6 µM (inactive),57.7 µM (inactive),34.6 µM (inactive),65.5 µM (inactive),41.5 µM (inactive),89.1 µM (inactive),26.7 µM (inactive),59.2 µM (inactive),76.4 µM (inactive),38.8 µM (inactive),47.3 µM (inactive),92.9 µM (inactive),24.2 µM (inactive),33.9 µM (inactive),42.3 µM (inactive),15.1 µM (inactive),51.4 µM (inactive)
O=[N+]([O-])c1ccc(/C(=C\c2ccccc2)Cn2ccnc2)cc1,40.5 µM (inactive),32.7 µM (inactive),32 µM (inactive),37.6 µM (inactive),44.7 µM (inactive),32.7 µM (inactive),34.3 µM (inactive),19 µM (inactive),19.9 µM (inactive),17.3 µM (inactive),38.1 µM (inactive),35.9 µM (inactive),–,85.5 µM (inactive),39.3 µM (inactive),17.8 µM (inactive),24 µM (inactive),28 µM (inactive),29.9 µM (inactive),59.6 µM (inactive)

# — ChEMBL document CHEMBL1201862, “PubChem BioAssay data set” (2004)
